“Also recorded” adds a separate entry of the source. Like-named read-outs stand apart in the source and are kept apart here.
Assays:
[1] = system: hiPSC-CM (iCell Cardiomyocytes^2); assay: RTCA CardioECR assessment (impedance and electrophysiology parameters)
In short: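 iCell^2 cardiomyocytes on fibronectin-coated ePlates monitored continuously by impedance for cell index, beating rate and amplitude. Field potential duration and spike amplitude were recorded from day 4–6 after monolayer formation. Data were double-normalized to DMSO control and baseline, with variability given as SD.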

[2] = system: hiPSC-CM (iCell Cardiomyocytes^2); assay: Intracellular miRNA expression by RT-qPCR in hiPSC-CM pellets after 72-hour treatment; conditions: for fold induction at 0.0003 µM / fold induction at 0.003 µM / fold induction at 0.03 µM / fold induction at 0.3 µM: Homo sapiens
In short: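 After 72-hour treatment and RTCA CardioECR assessment, total RNA from hiPSC-CM pellets was reverse transcribed, pre-amplified and quantified by TaqMan RT-qPCR against a 17-miRNA panel. Triplicates were pooled, so no statistical analysis was performed.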

[3] = ref extensive literature search, cited from earlier work
[4] = system: hiPSC-CM (iCell Cardiomyocytes^2); assay: miRNA in hiPSC-CM culture media by RT-qPCR at 24, 48 and 72 h post-treatment; conditions: for hsa-miR-133b in culture media, in words: 24, 48, 72 h, arsenic trioxide 0.48 μM, milrinone 3 μM, vincristine 0.3 μM, erlotinib 7.7 μM;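 on all read-outs here: medium RNA quantified by RT-qPCR, CT-values normalized to housekeeping miRNAs, compared against DMSO control, doses chosen from the MEC for CI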
Protocol: To extract total RNA from the culture media, hiPSC-CM were plated on 24-well plates by seeding 275,000 cells per mL per well. hiPSC-CM were maintained for 7 days in 200 µL of iCell^2 Maintenance Medium (iCell^2 MM; FCDI) for the 48-well ePlate and in 1 mL for 24-well plate, before drug treatment. Culture media change was performed every 2 days.
Stock solutions were diluted 1:1000 in iCell^2 MM before treatment and equilibrated at 37°C. As vehicle control, DMSO 0.1% was added to the media. Drug treatments on biological replicates (n = 3) were refreshed daily, and culture media was collected for further miRNA analysis. After 72 h, cell pellets were collected and stored at −80°C until total RNA extraction.
hiPSC-CM culture media was collected daily from 24-well plates, and centrifuged (+4°C, 11,000 rpm) for 5 min to remove cellular debris/cells. Total RNA was extracted from 300 µL of supernatant by Trizol/Chloroform phase separation and purification of total RNA by miRNeasy 96 Kit (Qiagen, Hilden, Germany). The spike-in control cel-miR-39 (Qiagen, Hilden, Germany) was used to check the quality of samples and PCR efficiency. DNase treatment (RNase-Free DNase Set (Qiagen, Hilden, Germany)) was applied according to the manufacturer’s instructions. After the RNA extraction, the same RT-qPCR protocol as for hiPSC-CM lysate was followed. Multiple unpaired t-tests were performed to compare delta CT-values (CT-values normalized to the housekeeping miRNAs) of the treatment groups to the DMSO control.
Analysis of miRNA in the culture media of hiPSC-CM treated with structural cardiotoxicants was performed at 24-, 48- and 72-hour post-treatment. […] The treatment concentrations were selected based on the MEC for CI to ensure that the preliminary evidence of cardiotoxicity in hiPSC-CMs could potentially lead to miRNA release in the culture media.

[5] = 72 h, read-out: hsa-miR-7-5p fold change
[6] = 72 h, read-out: hsa-miR-29a-5p fold change
[7] = 72 h, read-out: hsa-miR-96-5p fold change
[8] = 72 h, read-out: hsa-miR-126-3p fold change
[9] = 72 h, read-out: hsa-miR-133b fold change
[10] = 72 h, read-out: hsa-miR-146b-5p fold change
[11] = 72 h, read-out: hsa-miR-182-5p fold change
[12] = 72 h, read-out: hsa-miR-185-3p fold change
[13] = 72 h, read-out: hsa-miR-187-3p fold change
[14] = 72 h, read-out: hsa-miR-208b-3p fold change
[15] = 72 h, read-out: hsa-miR-365a-5p fold change
[16] = doxorubicin 0.1 μM, vinblastine 0.3 μM

CC[C@]1(O)C[C@H]2CN(CCc3c([nH]c4ccccc34)[C@@](C(=O)OC)(c3cc4c(cc3OC)N(C=O)[C@H]3[C@@](O)(C(=O)OC)[C@H](OC(C)=O)[C@]5(CC)C=CCN6CC[C@]43[C@@H]65)C2)C1 [Vincristine]
Cell index (CI) MEC ([1]; hiPSC-CM, 72-hour treatment, lowest concentration causing at least 20% change from baseline): 0.003 µM
RTCA, MEC (CI) ([1]; hiPSC-CM, change ≥20%, Table 2): 0.003 µM (CI)
Cell Index MEC ([1]; human, 72 h): 0.003 µM
Contractility Amplitude MEC ([1]; human, 72 h): 0.003 µM
Spike Amplitude (SA) MEC ([1]; human, 72 h): 0.003 µM
intracellular miRNA upregulation in hiPSC-CM, in words [2]: smallest fold change
miRNAs hiPSC-CM pellet, MEC overall [2]: 0.0003 µM
miRNAs upregulated at the MEC overall (hiPSC-CM pellet) [2]: miR-126-3p
hsa-miR-7-5p fold change, intracellular ([2]; 0.3 µM, 72 h): 1.0
hsa-miR-29a-5p fold change, intracellular ([2]; 0.3 µM, 72 h): 1.0
hsa-miR-96-5p fold change, intracellular ([2]; 0.3 µM, 72 h): 0.8
hsa-miR-126-3p fold change, intracellular ([2]; 0.3 µM, 72 h): 1.4
hsa-miR-133b fold change, intracellular ([2]; 0.3 µM, 72 h): 0.3
hsa-miR-146b-5p fold change, intracellular ([2]; 0.3 µM, 72 h): 0.3
hsa-miR-182-5p fold change, intracellular ([2]; 0.3 µM, 72 h): 0.4
hsa-miR-185-3p fold change, intracellular ([2]; 0.3 µM, 72 h): 1.1
hsa-miR-187-3p fold change, intracellular ([2]; 0.3 µM, 72 h): 0.7
hsa-miR-208b-3p fold change, intracellular ([2]; 0.3 µM, 72 h): 2.2
fold induction at 0.0003 µM [2, 5]: 1
fold induction at 0.003 µM [2, 5]: 1.1
fold induction at 0.03 µM [2, 5]: 0.9
fold induction at 0.3 µM [2, 5]: 1
fold induction at 0.0003 µM [2, 6]: 0.4
fold induction at 0.003 µM [2, 6]: 0.7
fold induction at 0.03 µM [2, 6]: 1
fold induction at 0.3 µM [2, 6]: 1
fold induction at 0.0003 µM [2, 7]: 0.3
fold induction at 0.003 µM [2, 7]: 0.6
fold induction at 0.03 µM [2, 7]: 0.3
fold induction at 0.3 µM [2, 7]: 0.8
fold induction at 0.0003 µM [2, 8]: 3.2
fold induction at 0.003 µM [2, 8]: 1.9
fold induction at 0.03 µM [2, 8]: 1.3
fold induction at 0.3 µM [2, 8]: 1.4
fold induction at 0.0003 µM [2, 9]: 0.3
fold induction at 0.003 µM [2, 9]: 0.2
fold induction at 0.03 µM [2, 9]: 0.4
fold induction at 0.3 µM [2, 9]: 0.3
fold induction at 0.0003 µM [2, 10]: 1.2
fold induction at 0.003 µM [2, 10]: 0.7
fold induction at 0.03 µM [2, 10]: 0.4
fold induction at 0.3 µM [2, 10]: 0.3
fold induction at 0.0003 µM [2, 11]: 0.4
fold induction at 0.003 µM [2, 11]: 0.5
fold induction at 0.3 µM [2, 11]: 0.4
fold induction at 0.0003 µM [2, 12]: 1.4
fold induction at 0.003 µM [2, 12]: 2
fold induction at 0.03 µM [2, 12]: 1
fold induction at 0.3 µM [2, 12]: 1.1
fold induction at 0.0003 µM [2, 13]: 1.3
fold induction at 0.003 µM [2, 13]: 1.9
fold induction at 0.03 µM [2, 13]: 1.4
fold induction at 0.3 µM [2, 13]: 0.7
fold induction at 0.0003 µM [2, 14]: 0.8
fold induction at 0.003 µM [2, 14]: 1.3
fold induction at 0.03 µM [2, 14]: 1.6
fold induction at 0.3 µM [2, 14]: 2.2
fold induction at 0.0003 µM [2, 15]: 0.6
fold induction at 0.003 µM [2, 15]: 1.6
fold induction at 0.03 µM [2, 15]: 1
intracellular miRNA upregulation in hiPSC-CM, in words ([2]; human, 72 h): intracellular miR-208-3p was upregulated
Cmax total ([3]; Supplementary Table 1): 50 nM
Cmax total ([3]; Table 1): 50 nM
hsa-miR-126-3p fold change, culture media ([4]; 0.3 µM, 24h): 0.4
hsa-miR-208b-3p fold change, culture media ([4]; 0.3 µM, 24h): 0.9
hsa-miR-[…] change, culture media ([4]; 0.3 µM, 24h): 1.6
hsa-miR-208b-3p fold change, culture media ([4]; 0.3 µM, 48h): 1.3
hsa-miR-[…] change, culture media ([4]; 0.3 µM, 48h): 1.4
hsa-miR-7-5p fold change, culture media ([4]; 0.3 µM, 72 h): 0.5
hsa-miR-133b fold change, culture media ([4]; 0.3 µM, 72 h): 2.4
hsa-miR-187-3p fold change, culture media ([4]; 0.3 µM, 72 h): 16.0
hsa-miR-208b-3p fold change, culture media ([4]; 0.3 µM, 72 h): 2.3
hsa-miR-[…] change, culture media ([4]; 0.3 µM, 72 h): 0.3
hsa-miR-133b in culture media, in words [4, 16]: increase that was not statistically significant

COc1cccc2c1C(=O)c1c(O)c3c(c(O)c1C2=O)C[C@@](O)(C(C)=O)C[C@@H]3O[C@H]1C[C@H](N)[C@H](O)[C@H](C)O1 [Daunorubicin]
RTCA, MEC (CI) ([1]; human): 0.1 µM (CI, BR)
Beating Rate MEC ([1]; human, 72 h): 0.1µM (+21%)
Beating rate (BR) MEC ([1]; human, 72 h): 0.1 (+21%) µM
Contractility Amplitude MEC ([1]; human, 72 h): 0.3µM (-82%)
Field Potential Duration MEC ([1]; human, 72 h): 0.1 µM
RTCA, MEC (BR) ([1]; human, 72 h): 0.1 µM (CI, BR)
Spike Amplitude (SA) MEC ([1]; human, 72 h): 0.1µM (-93%)
miRNAs hiPSC-CM pellet, MEC overall [2]: 0.1 µM
miRNAs upregulated at the MEC overall (hiPSC-CM pellet) [2]: miR-96 -5p, miR-185-3p, miR-187-3p, miR-365a-5p
Cmax total ([3]; Supplementary Table 1): 310 to 7840 nM
Cmax total ([3]; Table 1): 310 to 7840 nM

CC[C@]1(O)C[C@@H]2CN(CCc3c([nH]c4ccccc34)[C@@](C(=O)OC)(c3cc4c(cc3OC)N(C)[C@H]3[C@@](O)(C(=O)OC)[C@H](OC(C)=O)[C@]5(CC)C=CCN6CC[C@]43[C@@H]65)C2)C1 [Vinblastine]
RTCA, MEC (CI) ([1]; hiPSC-CM, change ≥20%, Table 2): 0.3 µM
Beating Rate MEC ([1]; human, 72 h): 0.003 µM
Beating rate (BR) MEC ([1]; human, 72 h): 0.003 µM
Contractility Amplitude MEC ([1]; human, 72 h): 0.0003 µM
RTCA, MEC (BR) ([1]; human, 72 h): 0.003 µM
Spike Amplitude (SA) MEC ([1]; human, 72 h): 0.0003 µM
miRNAs hiPSC-CM pellet, MEC overall [2]: 0.0003 µM
miRNAs upregulated at the MEC overall (hiPSC-CM pellet) [2]: miR-126-3p, miR-133b, miR-185-3p
Cmax total ([3]; Supplementary Table 1): 35 nM
Cmax total ([3]; Table 1): 35 nM
hsa-miR-133b in culture media, in words [4, 16]: upregulation was detected only after 72 h of treatment; also recorded: significant upregulation was observed only after 72-hour treatment
hsa-miR-187-3p in culture media, in words [4, 16]: detected in the culture media only following 72-hour exposure

N=C(N)c1ccc(OCCCCCOc2ccc(C(=N)N)cc2)cc1 [Pentamidine]
Beating Rate MEC ([1]; human, 72 h): 3 µM
Beating rate (BR) MEC ([1]; human, 72 h): 3 µM
Contractility Amplitude MEC ([1]; human, 72 h): 0.1 µM
Field Potential Duration MEC ([1]; human, 72 h): 1 µM
RTCA, MEC (BR) ([1]; human, 72 h): 3 µM (CI, BR)
RTCA, MEC (CI) ([1]; human, 72 h): 3 µM (CI, BR)
Spike Amplitude (SA) MEC ([1]; human, 72 h): 0.1 µM
miRNAs hiPSC-CM pellet, MEC overall [2]: 0.1 µM
miRNAs upregulated at the MEC overall (hiPSC-CM pellet) [2]: miR-126-3p, miR-146b-5p, miR-208b-3p
Cmax total ([3]; Supplementary Table 1): 1800 nM
Cmax total ([3]; Table 1): 1800 nM

— PMC12332266 (Frontiers in Pharmacology, 2025)
